# Reference: US20070037831A1, “Methods of using PDE 5 inhibitors for the treatment of congestive heart failure” (priority 2004, published 2007)
# pIC50: −log10 of the molar value.
# Biological target: T1, type V phosphodiesterase (Homo sapiens, UniProt O76074)
# T1 construct: endogenous in cells; host or cells: vasculature of patients with heart failure (in vivo)
# Assay: not given
# Conditions: patients with heart failure, acute; cited from earlier work
row,SMILES,endothelium dependent vasodilation
1,CCCc1nn(C)c2c(=O)[nH]c(-c3cc(S(=O)(=O)N4CCN(C)CC4)ccc3OCC)nc12 [Sildenafil],acutely enhance endothelium dependent vasodilation

# Biological target: T2, ETA receptor (Homo sapiens, UniProt P25101)
# T2 sequence (P25101 21-427): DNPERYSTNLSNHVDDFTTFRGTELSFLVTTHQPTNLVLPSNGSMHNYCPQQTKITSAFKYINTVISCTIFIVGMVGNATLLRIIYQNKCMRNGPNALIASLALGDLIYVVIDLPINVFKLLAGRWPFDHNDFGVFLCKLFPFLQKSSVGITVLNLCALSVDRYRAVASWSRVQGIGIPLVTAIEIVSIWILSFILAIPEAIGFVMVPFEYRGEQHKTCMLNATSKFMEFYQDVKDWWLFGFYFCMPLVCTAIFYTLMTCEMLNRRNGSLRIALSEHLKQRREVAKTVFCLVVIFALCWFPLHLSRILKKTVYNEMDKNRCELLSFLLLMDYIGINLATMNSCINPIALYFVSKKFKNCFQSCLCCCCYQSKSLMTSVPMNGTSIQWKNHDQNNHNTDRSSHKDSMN
# Assay: not given
# Conditions: among the ETA receptor antagonists; cited from earlier work
row,SMILES,selectivity over ETB
1,Cc1cc2c(cc1CC(=O)c1sccc1S(=O)(=O)Nc1onc(C)c1Cl)OCO2 [sitaxsentan],particularly selective over ETB

# Biological target: PDE V (Homo sapiens, UniProt O76074)
# Assay: PDE V inhibition (PDE V IC50)
# Type: biochemical
# Conditions: not given
row,SMILES,pIC50
1,CCCn1c(=O)n(CC)c(=O)c2c1nc(NC1CCCCC1)n2Cc1ccc(OC)c(C)c1 [Compound 176],7.00 to 7.82
2,CCn1c(=O)c2c(nc(N[C@@H]3CCC[C@H]3O)n2Cc2ccc(S(N)(=O)=O)c(Cl)c2)n(CC)c1=O [Compound 181],7.00 to 7.82
3,CCn1c(=O)c2c(nc(NC3CCCCC3)n2Cc2ccc(S(N)(=O)=O)cc2)n(CCO)c1=O [Compound 182],7.00 to 7.82
4,CCn1c(=O)c2c(nc(NC3CCCCC3)n2Cc2ccc(S(N)(=O)=O)c(Br)c2)n(CCO)c1=O [Compound 184],7.00 to 7.82
5,CCn1c(=O)c2c(nc(N[C@@H]3CCCC[C@H]3O)n2Cc2ccc(OC)c(Br)c2)n(CCO)c1=O [Compound 185],7.00 to 7.82
6,CCn1c(=O)c2c(nc(NC3CCOCC3)n2Cc2ccc(S(N)(=O)=O)c(Br)c2)n(CC)c1=O [Compound 190],8.00 to 8.30
7,CCn1c(=O)c2c(nc(NC3CCS(=O)(=O)CC3)n2Cc2ccc(OC)c(Cl)c2)n(CC)c1=O [Compound 193],7.00 to 7.82
8,CCn1c(=O)c2c(nc(NC3CCS(=O)(=O)CC3)n2Cc2ccc(OC)c(Br)c2)n(CC)c1=O [Compound 194],7.00 to 7.82
9,CCn1c(=O)c2c(nc(NC3CCC(F)(F)CC3)n2Cc2ccc(OC)c(Br)c2)n(CC)c1=O [Compound 199],8.00 to 8.30

# The remaining lines, values ahead:
row,pIC50,SMILES
1,8.00 to 8.30,CCCn1c(=O)n(CC)c(=O)c2c1nc(NC1CCCCC1)n2Cc1ccc2c(c1)OCO2 [Compound 175]
2,≥ 8.30,CCCn1c(=O)n(CC)c(=O)c2c1nc(NC1CCCCC1)n2Cc1cccc(O)c1 [Compound 177]
3,≥ 8.30,CCCn1c(=O)n(CC)c(=O)c2c1nc(NC1CCCCC1)n2Cc1ccc(O)c(C)c1 [Compound 178]
4,≥ 8.30,CCn1c(=O)c2c(nc(NC3CCCCC3)n2Cc2ccc(S(N)(=O)=O)c(Cl)c2)n(CC)c1=O [Compound 179]
5,8.00 to 8.30,CCn1c(=O)c2c(nc(NC3CCCCC3)n2Cc2ccc(S(N)(=O)=O)c(Br)c2)n(CC)c1=O [Compound 180]
6,8.00 to 8.30,CCn1c(=O)c2c(nc(NC3CCCCC3)n2Cc2ccc(S(N)(=O)=O)c(Cl)c2)n(CCO)c1=O [Compound 183]
7,≥ 8.30,CCn1c(=O)c2c(nc(NC3CCOCC3)n2Cc2ccc(S(N)(=O)=O)c(Cl)c2)n(CC)c1=O [Compound 191]
8,≥ 8.30,CCn1c(=O)c2c(nc(NC3CCSCC3)n2Cc2ccc(OC)c(Cl)c2)n(CC)c1=O [Compound 197]
9,≥ 8.30,CCn1c(=O)c2c(nc(NC3CCSCC3)n2Cc2ccc(OC)c(Br)c2)n(CC)c1=O [Compound 198]
